Experimental findings from patent US20090005398A1, “Methods For The Treatment of Central Nervous System Tumors” (priority 2007, published 2009) are described below.

A value given as a limit tells only on which side of the number the result lay.

What all share (format): cell-based
In test [1] the test system is A549. In words: Methylene blue growth inhibition assay. The conditions noted are these: Homo sapiens, 72 h. How it is done: (§1) Generally, exponentially growing cell lines of different tumor origins, cultured in appropriate media containing 10% fetal bovine serum at 37° C. in a 5% CO2 incubator were plated at low density (less than 2000 cells/well) in 96-well plates. Twenty four hours post-plating, cells were treated with different concentrations of compound ranging from 10 uM to 0.04 nM. Several wells were left untreated as a control. Seventy two hours post-treatment, cell numbers were determined using 100 μl per well of methylene blue (Sigma M9140) (0.5% in 50:50 Ethanol:water). Stain was incubated at room temperature for 30 minutes before plates were rinsed and dye solubilized in 1% N-lauroyl sarcosine, sodium salt, (Sigma L5125, in PBS) (further details of a methylene blue assay are described below). Plates were read on a microplate reader, measuring the OD at 620 nm.
(§2) Concentration of test compound that inhibited 50% of cell growth (IC50) was determined by 4 parameter fit of data using XLfit, (value of no cell control was subtracted from all samples for background). The data are shown in Table 1 below and represent a compilation of several different experiments, each performed using the general parameters outlined above, although minor variations may have been employed in some instances.
(§3) In one assay, normal human foreskin fibroblasts (HFF), human colon (HCT116, RKO), lung (H460, A549) and breast (MCF7) tumor cell lines were cultured in high glucose DMEM (Life Technologies) containing 10% fetal bovine serum (FBS) at 37° C. in a humidified 5% CO2, 95% air incubator. Cells were harvested using trypsin/EDTA, counted using a haemocytometer, and plated in 100 μL of culture media per well, at the following densities, in a 96-well tissue culture plate (Falcon 3075): HFF 5,000 cells/well, HCT116 3,000 cells/well, RKO 2,500 cells/well, H460 2,500 cells/well, A549 5,000 cells/well, MCF7 4,000 cells/well. The next day, compound was diluted in low glucose DMEM containing 100 μg/mL gentamicin, at twice the final required concentration, from 10 mM stock solutions in DMSO. 100 μL/well of these dilutions were added to the 100 μL of media currently in the assay plates. Medium containing 0.6% DMSO was added to control wells. The final concentration of DMSO in all wells was 0.3%. Cells were incubated at 37° C., 5% CO2 for 72 h. Medium was removed by aspiration. Cell biomass was estimated by staining cells with 80 μL per well methylene blue (Sigma M9140, 0.5% in 50:50 ethanol:water), and incubation at room temperature for 30-60 min. Stain was removed by aspiration and the plates rinsed by immersion in water, then air-dried. To release stain from the cells, 100 μL of solubilization solution was added (1% N-lauroyl sarcosine, Sodium salt, Sigma L5125, in PBS), and plates were shaken gently for about 30 min. Optical density at 620 nm was measured on a microplate reader. Percent inhibition of cell growth was calculated relative to vehicle treated control wells. Concentration of compound that inhibits 50% of cell growth (IC50) was interpolated using nonlinear regression (Levenberg-Marquardt) and the equation, y=Vmax*(1−(x/(K+x)))+Y2, where “K” was equal to the IC50.

Test [2] relates to H460. Nature of the test: Methylene blue growth inhibition assay. To be noted: Homo sapiens, NCI-H460, 72 h. The protocol: as §1, §2, §3
Test [3] deals with HCT116. In words: Methylene blue growth inhibition assay. The conditions noted are these: Homo sapiens, HCT-116, 72 h. The protocol: as §1, §2, §3
For test [4], the system named is HFF (normal human foreskin fibroblasts). Nature of the test: Methylene blue growth inhibition assay. To be noted: Fibroblast, 72 h. How it is done: as §1, §2, §3
Test [5] deals with MCF7. In words: Methylene blue growth inhibition assay. The conditions noted are these: Homo sapiens, 72 h. The protocol: as §1, §2, §3
Test [6] deals with RKO. Nature of the test: Methylene blue growth inhibition assay. To be noted: Homo sapiens, 72 h. The protocol:
as §1, §2, §3

Test [7] relates to BXPC3. Nature of the test: Cell-Titer-Glo cell proliferation. The conditions noted are these: Homo sapiens, BXPC-3, pancreas, 72 h. The protocol:
(§4) Exponentially growing cell lines of different tumor origins, cultured in appropriate media containing 10% fetal bovine serum at 37° C. in a 5% CO2 incubator were plated at low density (less than 2000 cells/well) in 96-well plates. Twenty four hours post-plating, cells were treated with different concentrations of compound ranging from 10 uM to 0.04 nM. Several wells were left untreated as a control. Seventy two hours post-treatment, cell numbers were determined using 50-100 ul per well of CellTiter-Glo (Promega #G7573). Plates were incubated at room temperature for 15 minutes and the chemiluminescent signal was read on the Victor V or Envison 2100 reader.
(§5) Concentration of compound that inhibited 50% of cell growth (IC50) was determined by 4 parameter fit of data using XLfit, (value of no cell control was subtracted from all samples for background). The Cell-Titer Glo data are shown in Table 3 below and represent a compilation of several different experiments, each performed using the general parameters outlined above, although minor variations may have been employed in some instances.

Test [8] deals with COLO205. In words: Cell-Titer-Glo cell proliferation. To be noted: Homo sapiens, COLO 205, colon, 72 h. The protocol: as §4, §5
Test [9] deals with HCT116. Nature of the test: Cell-Titer-Glo cell proliferation. To be noted: Homo sapiens, HCT-116, colon, 72 h. The protocol:
as §4, §5

The subject of test [10] is MV522. In words: Cell-Titer-Glo cell proliferation. The conditions noted are these: lung, 72 h. How it is done:
as §4, §5

For test [11], the system named is MiaPaca. In words: Cell-Titer-Glo cell proliferation. To be noted: Homo sapiens, MIA PaCa-2, pancreas, 72 h. The protocol:
as §4, §5

Test [12] has as its system P388. Nature of the test: Cell-Titer-Glo cell proliferation. To be noted: Mus musculus, blood, 72 h. How it is done: as §4, §5
The test system of test [13] is glioma cell lines. Nature of the test: Washout assay, all cell lines together. The conditions noted are these: all seven glioma cell lines of Table 5. The protocol: Seven glioma cell lines that can double at least once over three days were thawed and grown to 70-80% confluency before being used in the assay. On day 1, for each cell line, 2-3×10^5 cells were seeded into each well in 6-well cell culture plates and incubated at 37° C. overnight. […] The plates were incubated at 37° C. for 3 days.
On day 5, the compound was efficiently washed four times with culture medium supplemented with 20% fetal bovine serum (FBS) and then washed once in buffered saline solution (PBS). The cells were trypsinized. For each of the concentrations, compound-treated cell lines were plated into five 96-well plates at 5000 cells per well. For the next 4 consecutive days, one plate of the cells was taken out of the incubator and cell proliferation was measured by MTT ELISA assay.
The washout assay is designed to follow the cells' recovery from exposure to the compound. Each glioma cell line was assayed at least twice. The criteria for evaluating sensitivity or resistance was Last Growth Back Concentration (LGC), if LGC<=30 nM, the cell line is considered sensitive; if LGC>=1 uM, it is considered resistant; if LGC is in between these two concentrations, the cell line is considered intermediate. Based on criteria set, all the glioma cell lines appeared to be sensitive to the compound of Example 1.

What is called IC50 is the concentration at which inhibition is half-maximal. With `C[C@@H](Oc1cc(-n2cnc3ccc(CN4CCN(C)CC4)cc32)sc1C(N)=O)c1ccccc1C(F)(F)F` [Example 1, 5-{6-[(4-Methylpiperazin-1-yl)methyl]-1H-benzimidazol-1-yl}-3-{(1R)-1-[2-(trifluoromethyl)phenyl]ethoxy}thiophene-2-carboxamide], the IC50 in [1], in test [2], in test [3], in test [4], in test [5] and in test [6] was below 100 nM throughout. The IC50 in test [7], in test [8], in test [9], in [10], in test [11] and in test [12] was below 500 nM throughout. The “sensitivity of glioma cell lines by LGC criteria” value in [13] was “sensitive (LGC<=30 nM)”.
